Measurements published in US20080267888A1, “Heterocyclic Derivatives” (priority 2005, published 2008).

Columns and labels:
[1] = system: Streptozotocin induced diabetic mice; assay: Antidiabetic activity in streptozotocin induced diabetic mice; type: in vivo, Swiss albino mice; conditions: plasma, 50 mg/kg oral for 7 days, female mice, vs control group
Description: Antidiabetic Activity in Streptozotocin Induced Diabetic Mice
Female Swiss albino mice, at the age of 10 weeks were used in the study. Diabetes was induced in the animals by injecting streptozotocin by i.p. route at a dose of 200-mg/kg-body weight. 48 hours after streptozotocin administration, the animals were kept fasting for 6 hours. Subsequently blood was collected, plasma separated and the glucose was estimated. Animals showing greater than 200 mg/dl glucose levels were considered as diabetic and these animals were randomly distributed into various groups. The compounds 2 listed in the table 3 were administered at a dose of 50-mg/kg body weight by oral route for 7 days. Later the animals were fasted for 6 hours, the blood was collected and the plasma was separated. Biochemical estimations like glucose, cholesterol and triglycerides were carried out using the plasma. The effect of the compounds mentioned in the table was expressed in terms of percentage reduction in biochemical values as compared to the control group.

[2] = target: T1, DPP IV (Homo sapiens, UniProt P27487); assay: DPP IV assay with human plasma as source of DPP IV; type: biochemical; conditions: 1 hr incubation, substrate H-gly-pro AMC, vs vehicle control
T1 construct: using human plasma as a source of DPP IV; from tissue; host or cells: human plasma
T1 sequence (P27487 39-766 limits assumed): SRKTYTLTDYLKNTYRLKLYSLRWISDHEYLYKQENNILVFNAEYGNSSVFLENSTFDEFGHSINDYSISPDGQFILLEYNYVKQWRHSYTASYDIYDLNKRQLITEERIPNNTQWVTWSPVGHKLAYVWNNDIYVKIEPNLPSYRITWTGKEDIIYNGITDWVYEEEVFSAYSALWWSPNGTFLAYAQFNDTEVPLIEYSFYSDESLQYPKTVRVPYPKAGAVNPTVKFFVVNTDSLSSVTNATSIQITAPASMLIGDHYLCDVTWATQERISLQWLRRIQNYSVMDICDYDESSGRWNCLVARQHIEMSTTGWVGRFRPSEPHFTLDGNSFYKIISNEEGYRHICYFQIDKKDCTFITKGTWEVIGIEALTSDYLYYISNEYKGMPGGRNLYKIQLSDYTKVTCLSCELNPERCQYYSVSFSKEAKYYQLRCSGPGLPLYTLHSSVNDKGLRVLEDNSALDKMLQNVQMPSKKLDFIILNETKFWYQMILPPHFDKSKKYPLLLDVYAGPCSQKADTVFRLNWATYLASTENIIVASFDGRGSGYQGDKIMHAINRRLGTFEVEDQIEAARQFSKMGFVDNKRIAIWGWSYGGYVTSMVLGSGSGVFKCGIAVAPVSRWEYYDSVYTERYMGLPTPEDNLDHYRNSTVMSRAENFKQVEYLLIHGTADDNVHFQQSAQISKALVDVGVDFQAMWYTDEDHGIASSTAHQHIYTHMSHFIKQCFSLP
Description: DPP IV assay is carried by using human plasma as a source of DPP IV. The compounds were incubated at a concentration of 1 and 10 μM in an assay buffer containing the DPP IV enzyme for 1 hr, and then the substrate H-gly-pro AMC was added and further incubated for 20 minutes. Subsequently the reaction was stopped on addition of 25% glacial acetic acid. The plates were read in a spectrofluorimeter to get RFU on setting the excitation wavelength of 360 nm and emission wavelength of 460 nm. The percentage inhibition is calculated as compared to the vehicle control.

Structure (SMILES) | % Reduction Glucose [1] | % Reduction Triglyceride [1] | inhibition at 1 µM [2] | inhibition at 10 µM [2]
O=C1COCC(Cc2ccc(Oc3ccc(/C=C4\SC(=O)NC4=O)cc3)cc2)N1 (stereo not shown) [Example 1, 5-[4-(4-{[5-oxomorpholin-3-yl]methyl}phenoxy)benzylidene]-1,3-thiazolidine-2,4-dione] | 41.6% | – | – | –
O=C1COCC(Cc2ccc(Oc3ccc(/C=C4\SC(=S)NC4=O)cc3)cc2)N1 (stereo not shown) [Example 2, 5-(4-{4-[(4-oxo-2-thioxo-1,3-thiazolidin-5-ylidene)methyl]phenoxy}benzyl)morpholin-3-one] | 42.6% | 44.4% | – | –
O=C1COCC(Cc2ccc(Oc3ccc(/C=C4\SC(=O)NC4=O)cc3Cl)cc2)N1 (stereo not shown) [Example 7, 5-(3-chloro-4-{4-[(5-oxomorpholin-3-yl)methyl]phenoxy}benzylidene)-1,3-thiazolidine-2,4-dione] | 44.5% | 60.9% | – | –
O=C1COCC(Cc2ccc(Oc3ccc(/C=C4/C(=O)Nc5ccccc54)cc3Cl)cc2)N1 (stereo not shown) [Example 9] | – | – | 6.3% | 7.5%
O=C1COCC(Cc2ccc(Oc3ccc(/C=C4/C(=O)Nc5ccccc54)cc3F)cc2)N1 (stereo not shown) [Example 15] | – | – | 12.1% | 9.1%
O=C1COCC(Cc2ccc(Oc3ccc(/C=C4\SC(=S)NC4=O)cc3C(F)(F)F)cc2)N1 (stereo not shown) [Example 18, 5-(4-{4-[(4-oxo-2-thioxo-1,3-thiazolidin-5-ylidene)methyl]-2-(trifluoromethyl)phenoxy}benzyl)morpholin-3-one] | – | – | 7.3% | 11.8%
CN1C(=O)COCC1Cc1ccc(Oc2ccc(/C=C3\SC(=O)NC3=O)cc2)cc1 (stereo not shown) [Example 19, 5-(4-{4-[(4-methyl-5-oxomorpholin-3-yl)methyl]phenoxy}benzylidene)-1,3-thiazolidine-2,4-dione] | – | – | 8.9% | 15.2%
